Experimental findings from patent publication US10329289B2, “6,7-dihydro-5H-pyrrolo[3,4-B]pyridin-5-one allosteric modulators of the M4 muscarinic acetylcholine receptor” (Merck Sharp & Dohme Corp., priority 2015, dated 2019) are described below.

The assay deals with T1, human M4 muscarinic acetylcholine receptor (Homo sapiens, UniProt P08173).
T1 construct: expressed in transfected cells; host or cells: CHO-K1
T1 sequence (P08173 1-479): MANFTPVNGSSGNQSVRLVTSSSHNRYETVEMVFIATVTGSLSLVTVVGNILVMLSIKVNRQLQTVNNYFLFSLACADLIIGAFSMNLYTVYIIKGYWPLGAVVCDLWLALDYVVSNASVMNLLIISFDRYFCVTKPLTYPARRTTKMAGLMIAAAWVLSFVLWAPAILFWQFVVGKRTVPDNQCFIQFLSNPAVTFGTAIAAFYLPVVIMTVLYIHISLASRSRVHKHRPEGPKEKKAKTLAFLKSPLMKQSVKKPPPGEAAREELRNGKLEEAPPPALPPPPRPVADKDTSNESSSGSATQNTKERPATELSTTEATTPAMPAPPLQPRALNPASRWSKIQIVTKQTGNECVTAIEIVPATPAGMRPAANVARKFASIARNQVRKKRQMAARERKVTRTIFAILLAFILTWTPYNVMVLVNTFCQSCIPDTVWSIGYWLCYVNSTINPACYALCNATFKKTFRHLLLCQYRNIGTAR
Description: human FLIPR-based M4 PAM assay (Ca2+ mobilization, CHO-K1 cells with human M4 receptor and Gαqi5). Format: cell-based. The following applies: acetylcholine at 20% of maximum response, read-out: M4 PAM IP. Summed up: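 Calcium-mobilization (FLIPR) readout in dye-loaded CHO-K1 cells co-expressing human M4 receptor and Gαqi5. Potentiation measured against acetylcholine at a concentration giving 20% of maximal response, with an optional 70% addition; the reported value is the curve inflection point from a 4-parameter logistic fit.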
(A change in cytosolic calcium serves as a functional read-out for many receptors and channels.)
For `Cc1c(N2CCC(Oc3ccc4c(c3)C[C@@H](O)C4)CC2)nc2c(c1C)C(=O)NC2` [Example 334B, (S)-2-(4-((2-hydroxy-2,3-dihydro-1H-inden-5-yl)oxy)piperidin-1-yl)-3,4-dimethyl-6,7-dihydro-5H-pyrrolo[3,4-b]pyridin-5-one], the EC50 came out at 38 nM.
For `CCc1cc2c(nc1N1CCC(OCC3(C)CC3)CC1)[C@@H](CO)N(C)C2=O` [Example 341, (S)-3-ethyl-7-(hydroxymethyl)-6-methyl-2-(4-((1-methylcyclopropyl)methoxy)piperidin-1-yl)-6,7-dihydro-5H-pyrrolo[3,4-b]pyridin-5-one] the value was 23 nM; for `Cc1cc2c(nc1N1CCC(Oc3ccc4c(c3)C[C@H](O)C4)CC1)CNC2=O` (single isomer, unassigned) [Example 324B], 28 nM.
With `COc1ccc(OC2CCN(c3nc4c(cc3C)C(=O)N([C@@H](C)CO)C4)CC2)cn1` (single isomer, unassigned) [Example 264C], the EC50 worked out at 40 nM.
As for `Cc1cc2c(nc1N1CC[C@@H](Oc3ccc4c(cnn4C)c3)[C@@H](F)C1)[C@@H](CO)N(C)C2=O` [Example 283, (S)-2-((3S,4R)-3-fluoro-4-((1-methyl-1H-indazol-5-yl)oxy)piperidin-1-yl)-7-(hydroxymethyl)-3,6-dimethyl-6,7-dihydro-5H-pyrrolo[3,4-b]pyridin-5-one], the EC50 came out at 44 nM.
With `COCCOc1ccc(O[C@H]2CCN(c3nc4c(cc3C)C(=O)NC4)C[C@H]2F)cn1` (stereo in doubt) [Example 61, 2-((3R,4S)-3-fluoro-4-((6-(2-methoxyethoxy)pyridin-3-yl)oxy)piperidin-1-yl)-3-methyl-6,7-dihydro-5H-pyrrolo[3,4-b]pyridin-5-one] the figure was 135 nM.
Take `Cc1cc2c(nc1N1CC[C@@H](OCC3(C)CC3)C(F)(F)C1)CNC2=O` [Example 171A, (R)-2-(3,3-difluoro-4-((1-methylcyclopropyl)meth-oxy)piperidin-1-yl)-3-methyl-6,7-dihydro-5H-pyrrolo[3,4-b]pyridin-5-one]: the EC50 turned out to be 491 nM.
`Cc1c(N2CCC(Oc3ccc4c(c3)COC4)CC2)nc2c(c1C)C(=O)NC2` [Example 328, 2-(4-((1,3-Dihydro-2-benzofuran-5-yl)oxy)piperidin-1-yl)-3,4-dimethyl-6,7-dihydro-5H-pyrrolo[3,4-b]pyridin-5-one]: the EC50 is 61 nM.
In the case of `COCCOc1ccc(OC2CCN(c3nc4c(c(C)c3C)C(=O)NC4)CC2)cn1` [Example 220, 2-(4-((6-(2-methoxyethoxy)pyridin-3-yl)oxy)piperidin-1-yl)-3,4-dimethyl-6,7-dihydro-5H-pyrrolo[3,4-b]pyridin-5-one], the EC50 amounted to 109 nM.
Regarding `CCc1cc2c(nc1N1CCC(OCC3(C)CC3(F)F)CC1)CNC2=O` (stereo not shown) [Example 187A, 2-(4-((2,2-difluoro-1-methylcyclopropyl)meth-oxy)piperidin-1-yl)-3-ethyl-6,7-dihydro-5H-pyrrolo[3,4-b]pyridin-5-one], the EC50 came out at 295 nM.
`CCc1cc2c(nc1N1CCC(Oc3ccc4c(cnn4C)c3)CC1)[C@H](CO)N(C)C2=O` [Example 364, (R)-3-ethyl-7-(hydroxymethyl)-6-methyl-2-(4-((1-methyl-1H-indazol-5-yl)oxy)piperidin-1-yl)-6,7-dihydro-5H-pyrrolo[3,4-b]pyridin-5-one]: the EC50 is 3770 nM.
For the compound `Cc1cc2c(nc1N1CCC(Oc3cccnc3)CC1)CNC2=O` [Example 68, 3-methyl-2-(4-(pyridin-3-yloxy)piperidin-1-yl)-6,7-dihydro-5H-pyrrolo[3,4-b]pyridin-5-one], the EC50 amounted to 79 nM.
Consider `Cc1cc2c(nc1N1CC[C@@H](Oc3ccccc3)[C@@H](F)C1)CNC2=O` [Example 35, 2-((3S,4R)-3-fluoro-4-phenoxypiperidin-1-yl)-3-methyl-6,7-dihydro-5H-pyrrolo[3,4-b]pyridin-5-one], for which the EC50 came out at 24 nM.
`Cc1cc2c(nc1N1CCC(Oc3cn[nH]c3)CC1)CNC2=O` [Example 142, 2-(4-((1H-pyrazol-4-yl)oxy)piperidin-1-yl)-3-methyl-6,7-dihydro-5H-pyrrolo[3,4-b]pyridin-5-one]: the EC50 amounted to 270 nM.
For the compound `CCc1cc2c(nc1N1CCC(Oc3ccc4c(c3)COC4)CC1)[C@H](CO)N(C)C2=O` [Example 352, can-2-(4-((1,3-dihydro-2-benzofuran-5-yl)oxy)piperidin-1-yl)-3-ethyl-7-(hydroxymethyl)-6-methyl-6,7-dihydro-5H-pyrrolo[3,4-b]pyridin-5-one], the EC50 was 2100 nM.
As to `Cc1cc2c(nc1N1CC[C@@H](Oc3ccc4c(cnn4C)c3)[C@@H](F)C1)CN(C)C2=O` [Example 31, 2-((3S,4R)-3-fluoro-4-((1-methyl-1H-indazol-5-yl)oxy)piperidin-1-yl)-3,6-dimethyl-6,7-dihydro-5H-pyrrolo[3,4-b]pyridin-5-one], the EC50 worked out at 42 nM.
With `Cc1cc2c(nc1N1CCC(Oc3cnc4c(c3)CCO4)CC1)CNC2=O` [Example 201A, 2-(4-((2,3-dihydrofuro[2,3-b]pyridin-5-yl)oxy)piperidin-1-yl)-3-methyl-6,7-dihydro-5H-pyrrolo[3,4-b]pyridin-5-one], the EC50 worked out at 68 nM.
On to `Cc1cc2c(nc1N1CCC(OCC3(C)CCCC3)CC1)CNC2=O` [Example 178, 3-methyl-2-(4-((1-methylcyclopentyl)meth-oxy)piperidin-1-yl)-6,7-dihydro-5H-pyrrolo[3,4-b]pyridin-5-one], for which the EC50 amounted to 2480 nM.
For `COc1ccc(OC2CCN(c3nc4c(cc3C3CC3)C(=O)NC4)CC2)cn1` [Example 221, 3-cyclopropyl-2-(4-((6-methoxypyridin-3-yl)oxy)piperidin-1-yl)-6,7-dihydro-5H-pyrrolo[3,4-b]pyridin-5-one] the value was 1080 nM.
On to `Cc1c(N2CC[C@@H](OCC3(C)CC3)[C@H](F)C2)nc2c(c1C)C(=O)N(CCO)C2` [Example 267F, 2-((3R,4R)-3-fluoro-4-((1-methylcyclopropyl)methoxy)piperidin-1-yl)-6-(2-hydroxyethyl)-3,4-dimethyl-6,7-dihydro-5H-pyrrolo[3,4-b]pyridin-5-one], for which the EC50 was 17 nM.
For `COCCOCc1cccc(OC2CCN(c3nc4c(cc3C)C(=O)NC4)CC2)c1` [Example 58, 2-(4-(3-((2-methoxyethoxy)meth-yl)phenoxy)piperi-din-1-yl)-3-methyl-6,7-dihydro-5H-pyrrolo[3,4-b]pyridin-5-one] the value was 192 nM.
With `COC(=O)CN1Cc2nc(N3CCC(Oc4ccc(OC)nc4)CC3)c(C)cc2C1=O` [Example 260, methyl 2-(2-(4-((6-methoxypyridin-3-yl)oxy)piperidin-1-yl)-3-methyl-5-oxo-5,7-dihydro-6H-pyrrolo[3,4-b]pyridin-6-yl)acetate] the figure was 141 nM; with `Cc1ccc(OC2CCN(c3nc4c(cc3C)C(=O)NC4)CC2)cc1Cl` [Example 82, 2-(4-(3-chloro-4-methylphenoxy)piperidin-1-yl)-3-methyl-6,7-dihydro-5H-pyrrolo[3,4-b]pyridin-5-one], 121 nM.
For `CC(=O)N1CCc2ccc(OC3CCN(c4nc5c(cc4C)C(=O)NC5)CC3)cc2C1` [Example 295, 2-(4-((2-acetyl-1,2,3,4-tetrahydro-isoquinolin-7-yl)oxy)piperidin-1-yl)-3-methyl-6,7-dihydro-5H-pyrrolo[3,4-b] pyridin-5-one], the EC50 is 137 nM.
For `CO[C@@H]1Cc2ccc(OC3CCN(c4nc5c(cc4C)C(=O)NC5)CC3)cc2C1` [Example 162A, (R)-2-(4-((2-methoxy-2,3-dihydro-1H-inden-5-yl)oxy)piperidin-1-yl)-3-methyl-6,7-dihydro-5H-pyrrolo[3,4-b]pyridin-5-one] the value was 59 nM; for `Cc1cc2c(nc1N1CCC(OCC3CC3)CC1)CNC2=O` [Example 9, 2-(4-(cyclopropylmethoxy)piperidin-1-yl)-3-methyl-6,7-dihydro-5H-pyrrolo[3,4-b]pyridin-5-one], 83 nM; for `CCc1cc2c(nc1N1CCC(Oc3cccc(C#N)c3)CC1)CNC2=O` [Example 93A, 3-((1-(3-ethyl-5-oxo-6,7-dihydro-5H-pyrrolo[3,4-b]pyridin-2-yl)piperidin-4-yl)oxy)benzonitrile], 148 nM.
For `Cc1cc(OC2CCN(c3nc4c(cc3C)C(=O)NC4)CC2)ccc1F` [Example 108, 2-(4-(4-fluoro-3-methylphenoxy)piperidin-1-yl)-3-methyl-6,7-dihydro-5H-pyrrolo[3,4-b]pyridin-5-one] the value was 59 nM.
For `Cc1cc2c(nc1N1CCC(Oc3ccccc3)CC1)CN(CCO)C2=O` [Example 231, 6-(2-Hydroxyethyl)-3-methyl-2-(4-phenoxypiperidin-1-yl)-6,7-dihydro-5H-pyrrolo[3,4-b]pyridin-5-one] the value was 51 nM.
Take `COc1ccc(OC2CCN(c3nc4c(cc3C)C(=O)N(C)[C@]4(C)CO)CC2)cn1` (single isomer, unassigned) [Example 287B]: the EC50 was 214 nM.
`Cc1c(N2CCC(Oc3ccc4c(c3)C[C@@H](O)C4)CC2)nc2c(c1C)C(=O)N(CCO)C2` [Example 264E, (S)-2-(4-((2-hydroxy-2,3-dihydro-1H-inden-5-yl)oxy)piperidin-1-yl)-6-(2-hydroxyethyl)-3,4-dimethyl-6,7-dihydro-5H-pyrrolo[3,4-b]pyridin-5-one]: the EC50 turned out to be 125 nM.
